Reference: US20260008818A1, “CYCLIC PEPTIDE OR SALT THEREOF, AND USES THEREOF” (FUJIFILM Corporation, priority 2023, published 2026)
Bridge positions count the residues as written; N and C are the ends. Ends that are not written are not given here. COCH2 = acetyl group that carries the bridge

Tested on: Recombinant Human FGFR1 alpha (IIIc) Fc Chimera Protein
Experiment: Binding affinity of enzymatically synthesized cyclic peptide to FGFR by ELISA
Details: luminescence signal at reaction concentration 10 nmol/L, SEQ ID NO: 39 standardized to 1, enzyme synthesis product
Summary of the method: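 Plate-immobilized FGFR1α(IIIc)-Fc (5 ng/well) incubated with Myc-tagged cyclic peptide 3 h at room temperature; bound peptide detected with anti-Myc antibody (2 h) and chemiluminescence. Signal is FGFR minus no-FGFR wells, normalized to SEQ ID NO: 39 at 10 nmol/L and graded A–D.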

Row | Substance | Evaluation result of binding affinity to FGFR
1 | 265 (FCQFETLKFFGWEAPYLVK(COCH2)L; thioether 2-19 (inferred)) [compound 265] | C (0.1 or more and less than 0.5)
2 | 266 (PCSWVQLQYQGFTAPFLVK(COCH2)Y; thioether 2-19 (inferred)) [compound 266] | C (0.1 or more and less than 0.5)
3 | 267 (ACRWAQLQFLSWGAPFLVK(COCH2)T; thioether 2-19 (inferred)) [compound 267] | C (0.1 or more and less than 0.5)
4 | 268 (VCRLSFWGHAAPFLSVK(COCH2)T; thioether 2-17 (inferred)) [compound 268] | C (0.1 or more and less than 0.5)
5 | 269 (VCYEQLVVWGHIAPFLTK(COCH2)H; thioether 2-18 (inferred)) [compound 269] | C (0.1 or more and less than 0.5)
6 | 270 (QCYVQLYVWGHPAPFYWDK(COCH2)T; thioether 2-19 (inferred)) [compound 270] | C (0.1 or more and less than 0.5)
7 | 271 (QCWSQVSTPWGHTAPFIFK(COCH2)D; thioether 2-19 (inferred)) [compound 271] | B (0.5 or more and less than 0.7)
8 | 272 (WCHIAPFLYHDGIQWGHLK(COCH2)V; thioether 2-19 (inferred)) [compound 272] | B (0.5 or more and less than 0.7)
9 | 273 (QCYVQLYVWGHPAPFYWDK(COCH2)N; thioether 2-19 (inferred)) [compound 273] | C (0.1 or more and less than 0.5)
10 | 274 (QCYVQLYFWGHPAPFYWDK(COCH2)T; thioether 2-19 (inferred)) [compound 274] | C (0.1 or more and less than 0.5)
11 | 275 (WCIRRLYSPWGHVAPFWVK(COCH2)P; thioether 2-19 (inferred)) [compound 275] | B (0.5 or more and less than 0.7)
12 | 276 (QCYVQLYVWGHPAPFYWDK(COCH2)S; thioether 2-19 (inferred)) [compound 276] | C (0.1 or more and less than 0.5)
13 | 277 (QCYVQLYVWGHPAPFYWDK(COCH2)I; thioether 2-19 (inferred)) [compound 277] | C (0.1 or more and less than 0.5)
14 | 278 (SCIVPLYIYGWRAPYWLK(COCH2)V; thioether 2-18 (inferred)) [compound 278] | C (0.1 or more and less than 0.5)
15 | 279 (YCTIQRLWLLHEAPFWVK(COCH2)T; thioether 2-18 (inferred)) [compound 279] | C (0.1 or more and less than 0.5)
16 | 280 (PCWTRVVLLHHYAPFWAK(COCH2)I; thioether 2-18 (inferred)) [compound 280] | C (0.1 or more and less than 0.5)
17 | 281 (FCTIQQLILVNHRAPFWVK(COCH2)T; thioether 2-19 (inferred)) [compound 281] | B (0.5 or more and less than 0.7)
18 | 282 (TCQWEQLRIGPHLAPFRSK(COCH2)R; thioether 2-19 (inferred)) [compound 282] | C (0.1 or more and less than 0.5)
19 | 283 (KCSYERLQFHGHEAPFRVK(COCH2)V; thioether 2-19 (inferred)) [compound 283] | B (0.5 or more and less than 0.7)
20 | 284 (HCKYERLQFHGHEAPFRVK(COCH2)V; thioether 2-19 (inferred)) [compound 284] | A (0.7 or more)
21 | 285 (HCSYKRLQFHGHEAPFRVK(COCH2)V; thioether 2-19 (inferred)) [compound 285] | B (0.5 or more and less than 0.7)

Row | Substance | Evaluation result of binding affinity to FGFR
22 | 286 (HCSYEKLQFHGHEAPFRVK(COCH2)V; thioether 2-19 (inferred)) [compound 286] | A (0.7 or more)
23 | 287 (HCSYERLKFHGHEAPFRVK(COCH2)V; thioether 2-19 (inferred)) [compound 287] | A (0.7 or more)
24 | 288 (HCSYERLQFKGHEAPFRVK(COCH2)V; thioether 2-19 (inferred)) [compound 288] | B (0.5 or more and less than 0.7)
25 | 289 (HCSYERLQFHKHEAPFRVK(COCH2)V; thioether 2-19 (inferred)) [compound 289] | C (0.1 or more and less than 0.5)
26 | 290 (HCSYERLQFHGHKAPFRVK(COCH2)V; thioether 2-19 (inferred)) [compound 290] | B (0.5 or more and less than 0.7)
27 | 291 (HCSYERLQFHGHEAKFRVK(COCH2)V; thioether 2-19 (inferred)) [compound 291] | C (0.1 or more and less than 0.5)
28 | 292 (HCSYERLQFHGHEAPFKVK(COCH2)V; thioether 2-19 (inferred)) [compound 292] | B (0.5 or more and less than 0.7)
29 | 293 (HCSYERLQFHGHEAPFRKK(COCH2)V; thioether 2-19 (inferred)) [compound 293] | C (0.1 or more and less than 0.5)
30 | 294 (HCSYERLQFHGHEAPFRVK(COCH2)K; thioether 2-19 (inferred)) [compound 294] | A (0.7 or more)
31 | 295 (MCSYERLQFHGHEAPFRVK(COCH2)V; thioether 2-19 (inferred)) [compound 295] | A (0.7 or more)
32 | 296 (HCMYERLQFHGHEAPFRVK(COCH2)V; thioether 2-19 (inferred)) [compound 296] | A (0.7 or more)
33 | 297 (HCSMERLQFHGHEAPFRVK(COCH2)V; thioether 2-19 (inferred)) [compound 297] | C (0.1 or more and less than 0.5)
34 | 298 (HCSYMRLQFHGHEAPFRVK(COCH2)V; thioether 2-19 (inferred)) [compound 298] | B (0.5 or more and less than 0.7)
35 | 299 (HCSYEMLQFHGHEAPFRVK(COCH2)V; thioether 2-19 (inferred)) [compound 299] | C (0.1 or more and less than 0.5)
36 | 300 (HCSYERMQFHGHEAPFRVK(COCH2)V; thioether 2-19 (inferred)) [compound 300] | A (0.7 or more)
37 | 301 (HCSYERLMFHGHEAPFRVK(COCH2)V; thioether 2-19 (inferred)) [compound 301] | A (0.7 or more)
38 | 302 (HCSYERLQMHGHEAPFRVK(COCH2)V; thioether 2-19 (inferred)) [compound 302] | B (0.5 or more and less than 0.7)
39 | 303 (HCSYERLQFMGHEAPFRVK(COCH2)V; thioether 2-19 (inferred)) [compound 303] | A (0.7 or more)
40 | 304 (HCSYERLQFHMHEAPFRVK(COCH2)V; thioether 2-19 (inferred)) [compound 304] | C (0.1 or more and less than 0.5)
41 | 305 (HCSYERLQFHGHMAPFRVK(COCH2)V; thioether 2-19 (inferred)) [compound 305] | A (0.7 or more)
